In PMC4467156, “A new chemical inhibitor of angiogenesis and tumorigenesis that targets the VEGF signaling pathway upstream of Ras” (Oncotarget, 2015):
Like-named read-outs stand apart in the source and are kept apart here.

What was measured:
HMEC-GFP spheroids = assay: Sprouting of HMEC-GFP spheroids into collagen gels; type: cell-based; conditions: Homo sapiens
Protocol: To prepare spheroids, HMEC-GFP cells were seeded at 3000 cells/well in round-bottom 96-multiwell plates in DMEM 1 g/L glucose (Eurobio, Les Ulis, France) containing 0.25% methylcellulose. 48 h later, the spheroids were collected, transferred into flat-bottom 96-well plates and embedded in collagen gel (1.2 mg/mL type I collagen) prepared in a Iscove's modified Dulbecco's medium, supplemented with FGF-2 (10 ng/mL), 50 U/mL penicillin and 50 μg/mL streptomycin. Treatment with COB223 (10 and 20 μM) started right after spheroids were included in the collagen gels. Sprouting was allowed for 24 h at 37°C. Images were acquired by fluorescence microscopy and analysis of gel invasion was performed using the freeware Image J. Statistical analysis was performed using a Kruskal & Wallis test.
HMEC-GFP cells were developed as spheroids in an Iscove's modified Dulbecco's medium containing 0.2% methylcellulose in round-bottom 96-multiwell plate. Two days later, spheroids were collected and invasion was allowed in a Iscove's modified Dulbecco's medium, supplemented with 1.2 mg/mL collagen I, 50 U/mL Penicillin, 50 μg/mL streptomycin. Molecules (10 or 20 μM) or FGF-2 (10 ng/mL) were added in the preparation before collagen gelification.

ERK1/2 phosphorylation = ERK1/2 phosphorylation in 3T3 fibroblasts; type: cell-based; conditions: data not shown
PDGFRß = PDGFRß (Homo sapiens, UniProt P09619); assay: In vitro kinase assay PDGFRß; type: biochemical; conditions: concentrations up to 50 μM
Chain of PDGFRß (P09619 33-1106, species assumed): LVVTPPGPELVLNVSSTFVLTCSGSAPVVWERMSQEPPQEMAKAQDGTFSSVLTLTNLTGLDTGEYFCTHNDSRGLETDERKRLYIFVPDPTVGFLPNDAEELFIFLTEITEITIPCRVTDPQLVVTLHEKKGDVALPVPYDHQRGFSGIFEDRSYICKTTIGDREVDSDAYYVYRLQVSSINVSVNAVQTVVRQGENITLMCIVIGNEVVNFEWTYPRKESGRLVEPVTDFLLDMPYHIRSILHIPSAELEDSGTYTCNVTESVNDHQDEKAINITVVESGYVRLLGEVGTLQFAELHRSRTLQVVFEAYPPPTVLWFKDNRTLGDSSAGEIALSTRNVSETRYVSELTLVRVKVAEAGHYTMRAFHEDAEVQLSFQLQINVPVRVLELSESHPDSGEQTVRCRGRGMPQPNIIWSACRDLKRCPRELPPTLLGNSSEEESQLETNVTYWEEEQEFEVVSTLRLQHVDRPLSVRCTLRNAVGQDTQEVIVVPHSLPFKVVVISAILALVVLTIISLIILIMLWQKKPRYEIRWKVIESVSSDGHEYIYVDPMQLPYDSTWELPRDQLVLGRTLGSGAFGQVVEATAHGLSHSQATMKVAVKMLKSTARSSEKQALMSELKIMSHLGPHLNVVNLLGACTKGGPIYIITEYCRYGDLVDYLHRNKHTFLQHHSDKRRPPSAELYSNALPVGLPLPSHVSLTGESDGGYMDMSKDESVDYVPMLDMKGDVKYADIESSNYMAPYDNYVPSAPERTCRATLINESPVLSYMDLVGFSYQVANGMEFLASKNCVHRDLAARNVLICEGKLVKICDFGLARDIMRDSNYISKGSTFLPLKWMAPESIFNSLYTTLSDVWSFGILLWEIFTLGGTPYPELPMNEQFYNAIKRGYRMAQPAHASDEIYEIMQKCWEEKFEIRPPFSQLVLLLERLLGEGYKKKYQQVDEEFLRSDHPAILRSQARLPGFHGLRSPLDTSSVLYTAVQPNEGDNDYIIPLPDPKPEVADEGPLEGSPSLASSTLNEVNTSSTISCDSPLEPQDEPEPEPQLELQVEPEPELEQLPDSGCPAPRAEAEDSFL
Protocol: (§1) We first wondered whether COB223 required to be internalized to exert its biological effect. For this, we synthesized a covalent complex between BSA and COB223 and purified it. […] In vitro kinase assays were performed with a panel of purified protein-kinases involved in mitogenic signaling, including VEGFR2, FGFR1, FGFR2, PDGFRß, Met, Raf, MEK1, ERK1, ERK2, PKCα, PKCβI, PKCβII, PKCζ as indicated in Table 2. […] We then analyzed the effect of COB223 on VEGF-induced phosphorylations of VEGFR2, MEK and ERK1/2 (Figure 9). […] (Figure 9A, 9B). […] It was also specific of the p42/p44 MAP kinase pathway as activation of p38 MAP kinase phosphorylation in HUVEC cells by VEGF or serum was unaffected by COB223 (data not shown). The activation of src phosphorylation by VEGF in HUVECs was also unaffected by COB223 (data not shown).

LLC/2 cells = assay: 3H-thymidine incorporation, LLC/2; type: cell-based; conditions: LLC/2 lung carcinoma cells; less efficiently than on endothelial cells
Protocol: Cells were treated with molecules in complete medium. After 22 h, 1 μCi per well H^3 thymidine was added for 2 hours. Cells are then fixed by 10% trichloroacetic acid and harvested with 0.2N NaOH, 1% SDS. Radioactivity was measured in a beta counter.

HMEC-GFP cells = assay: Scratch wound closure assay, HMEC-GFP; type: cell-based, human; conditions: Homo sapiens
From the text: In order to adapt the endothelial scratch wounding assay to the constraints of high throughput screening, we decided to use an endothelial cell line rather than primary cultures for the sake of reproducibility. Since angiogenesis is triggered by capillary endothelial cells, we selected the HMEC-1 cell line which consists of human dermal microvascular endothelial cells stably expressing SV40 […] antigen. We infected this cell line with GFP-encoding retroviral particles and selected one clone (thereafter named HMEC-GFP) that presented a high level of fluorescence and a strong proliferation rate (doubling time in the presence of serum: 22 h). We controlled that GFP expression was stable over at least 50 passages and that these cells still expressed endothelial markers such as VE-cadherin and CD31. In a standard assay, HMEC-GFP cells were grown until confluence in 96-well plates in the presence of serum, scratched with the multi-tip dispenser of the HTS automat, gently rinsed twice to eliminate detached cells and cell debris that could liberate inflammatory and potentially angiogenic cytokines, and incubated for 24 h in the presence of serum and the compounds to be tested. Each well was photographed at time 0 h (after wounding) and 24 h under a motorized epifluorescence microscope and the digitized images were analyzed using Image J to determine the percentage of wound closure (Figure 1A, 1B). Under our standard conditions, the closure rate was 72 ± 4% in the positive controls and 27 ± 4.% in the negative controls.
Confluent cell monolayers were wounded with a plastic pipet tip, washed gently with phosphate buffer saline (PBS) and treated with complete media containing molecules, as indicated. Cells were placed at 37°C into the incubator and photographed at indicated times. Quantitation of closure of the monolayer was performed using the NIH Image J program (http://rsbweb.nih.gov/ij/). Results are expressed as percentage of wound closure at t = 24 h as compared to the initial wound at t = 0 h.

ERK1 = ERK1 (Homo sapiens, UniProt P27361); assay: In vitro kinase assay ERK1; type: biochemical; conditions: concentrations up to 50 μM
Chain of ERK1 (P27361 whole entry, species assumed): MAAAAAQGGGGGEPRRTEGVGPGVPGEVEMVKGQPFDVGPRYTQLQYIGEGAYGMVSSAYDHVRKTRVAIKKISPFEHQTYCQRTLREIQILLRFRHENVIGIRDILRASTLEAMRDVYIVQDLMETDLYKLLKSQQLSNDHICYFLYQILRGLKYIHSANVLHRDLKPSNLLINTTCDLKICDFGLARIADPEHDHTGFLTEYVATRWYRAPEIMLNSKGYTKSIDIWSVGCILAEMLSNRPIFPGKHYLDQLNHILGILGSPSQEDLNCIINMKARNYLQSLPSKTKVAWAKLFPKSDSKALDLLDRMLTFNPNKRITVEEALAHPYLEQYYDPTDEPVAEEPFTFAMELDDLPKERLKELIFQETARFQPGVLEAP
Protocol: as §1

Raf = assay: In vitro kinase assay Raf; type: biochemical; conditions: concentrations up to 50 μM
Protocol: as §1

HMVECd cells = assay: Cell viability WST-1, HMVECd; type: cell-based, human; conditions: confluent HMVECd, 24 h at 37°C
Protocol: Once they had reached confluency, cells were kept for 24 hours in medium supplemented with 0.5% FCS (LLC/2 and 3T3 cells) or 2.5% FCS (HUVEC and HMVEC-d cells), in the presence of COB223 at different concentrations. WST-1 assay (Roche Diagnostic, Meylan, France) was then performed according to the manufacturer's instructions.

Structure (SMILES): CN(C)c1cccc2c(S(=O)(=O)NCCCN3CCN(CCCNC(=O)OC(C)(C)C)CC3)cccc12 [COB223, tert-Butyl 3-(4-(3-(5-(dimethylamino)naphthalene-1-sulfonamido)propyl)piperazin-1-yl) propylcarbamate]
- inhibition at 10 µM (HMEC-GFP spheroids; 10 μM COB223, 10 ng/ml FGF-2, collagen I gel, read-out: inhibition of FGF-2-stimulated sprouting): 70%
- inhibition at 10 µM (HMEC-GFP spheroids; 10 μM COB223, collagen I gel, read-out: inhibition of basal sprouting): 50%
- FGF2-induced or serum-induced phosphorylation of ERK1/2 (ERK1/2 phosphorylation): did not affect
- kinase inhibition (PDGFRß): None of them was inhibited
- effect on cell proliferation (LLC/2 cells): inhibited
- EC50 (HMEC-GFP cells; as quoted): 5 µM
- IC50 (HMEC-GFP cells; wound closure after 24 h, 10% FCS, tested 3.125 μM to 100 μM): 5 µM
- kinase inhibition (ERK1): None of them was inhibited
- kinase inhibition (Raf): None of them was inhibited
- cytotoxic concentrations (HMVECd cells): > 50 µM
